Reference: patent US20250108048A1, “STING AGONIST COMPOUNDS AND CONJUGATES” (SUTRO BIOPHARMA, INC., priority 2023, published 2025)
Read-outs that look alike come from different tables or passages of the source.

Legend:
hSTING-R232 = target: T1, hSTING-R232 (Homo sapiens, UniProt Q86WV6, H232R); experiment: THP1-Dual KI-hSTING-R232 reporter assay (IRF pathway, secreted Lucia luciferase); type: cell-based; settings: THP1-Dual KI-hSTING-R232 cells, 24 hours; read-out: Reporter assay EC50 (nM) THP-1-R232
T1 construct: host or cells: THP1-Dual KI-hSTING-R232 (from THP1-Dual KO-STING)

hSTING-HAQ haplotype = target: T2, hSTING-HAQ haplotype (Homo sapiens, UniProt Q86WV6, G230A/H232R/R293Q/R71H); experiment: THP-1-Dual reporter assay (endogenous hSTING-HAQ); type: cell-based; settings: THP-1-Dual cells (hSTING-HAQ), 24 hours
T2 construct: host or cells: THP-1-Dual

hSTING WT = hSTING WT (Homo sapiens, UniProt Q86WV6); experiment: Surface plasmon resonance, hSTING WT; type: binding; settings: read-out: hSTING WT SPR (Kd)
hSTING AQ = hSTING AQ (Homo sapiens, UniProt Q86WV6, G230A/H232R/R293Q); experiment: Surface plasmon resonance, hSTING AQ; type: binding; settings: read-out: hSTING AQ SPR (Kd)
[1] = tested on: TROP2 positive NCI-H292 Cells; experiment: Cytokine release from cancer cells (MSD); type: cell-based, human; settings: 120 hours; for EC50: Homo sapiens
Method: The cell supernatant was collected and IP-10 and IL-6 released in the cell culture medium was measured using Streptavidin single spot 96 well plates, compatible human antibody pairs, and calibrating solutions commercially available from MesoScale Discovery. Raw data generated by the Meso Scale Discovery (MSD®) SQ120 plate reader was imported into MSD Discovery Workbench software. Unknown sample values were interpolated from standard curves by the software and imported into Graphpad Prism. Each cytokine level was fitted with non-linear regression analysis, using log (agonist) vs. response, variable slope, 4-parameter fit equation in GraphPad Prism.

mSTING = target: T3, mSTING (Mus musculus, UniProt Q3TBT3); experiment: THP1-Dual KI-mSTING reporter assay; type: cell-based; parameters: host or cells: THP1-Dual KI-mSTING (from THP1-Dual KO-STING); settings: THP1-Dual KI-mSTING cells, 24 hours; read-out: Reporter assay EC50 (nM) THP-1 mSTING
T3 sequence (Q3TBT3 1-378): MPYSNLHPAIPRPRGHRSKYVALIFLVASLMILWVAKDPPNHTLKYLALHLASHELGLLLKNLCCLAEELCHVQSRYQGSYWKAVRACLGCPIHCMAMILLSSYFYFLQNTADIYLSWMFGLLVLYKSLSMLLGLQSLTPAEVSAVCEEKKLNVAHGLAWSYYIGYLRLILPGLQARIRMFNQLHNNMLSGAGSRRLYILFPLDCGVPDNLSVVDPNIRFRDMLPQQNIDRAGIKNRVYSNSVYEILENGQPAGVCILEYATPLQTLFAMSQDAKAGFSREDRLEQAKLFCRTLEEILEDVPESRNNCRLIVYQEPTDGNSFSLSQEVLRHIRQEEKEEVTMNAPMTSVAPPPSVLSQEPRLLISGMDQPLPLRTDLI
Method: The activities of the STING agonists to activate human or mouse STING pathways were evaluated in THP-1-Dual™, THP1-Dual™ KI-hSTING-R232, THP1-Dual™ KI-hSTING-H232 Cells and THP1-Dual™ KI-mSTING Cells. THP-1-Dual™ cells contains hSTING-HAQ haplotype and can be used to evaluate the activity of STING agonists by monitoring the activation of NF-κB pathway and the […] (IFN regulatory factor) pathways. THP1-Dual™ KO-STING cells were generated from THP1-Dual™ cells by stable knockout of the endogenous HAQ STING gene. THP1-Dual™ KI-hSTING-R232 cells, THP1-Dual™ KI-hSTING-H232 cells and THP1-Dual™ KI-mSTING cells were generated by transfecting THP1-Dual™ KO-STING cells with hSTING-R232 or hSTING-H232 or mSTING. Stimulating these reporter cells with a STING agonist activates TRF pathway and induces the production of a secreted Lucia luciferase in the cell culture medium, which can be determined using QUANTI-Luc™ reagent.
THP-1-Dual™, THP1-Dual™ KI-hSTING-R232, THP1-Dual™ KI-hSTING-H232 and THP1-Dual™ KI-mSTING reporter cells were purchased from Invivogen and maintained in manufacture recommended culture medium with required supplemental antibiotics. On the day of assay, the cells were harvested with Accutase and counted by the Vi-CELL Cell Viability Analyzers. Cells were resuspended in HEK blue detection medium and a total of 10000 cells were seeded in each well of a 384-well flat bottom plate. Serial dilutions of STING agonists free drugs (1:3 serial dilution starting from 5 uM) was added into treatment wells. After incubation at 37° C. in a CO2 incubator for 24 hours, 20 μl of cell culture medium per well was transferred into a 384-well white (opaque) plate. 50 μl of QUANTI-Luc™ assay solution was then added to each well and the plate was immediately transferred to an ENVISION® plate reader to measure luminescence (Perkin-Elmer). Relative luminescence readings were converted to fold change of signal using untreated cells as controls. Data was fitted with non-linear regression analysis, using log (agonist) vs. response, variable slope, 4-parameter fit equation using GraphPad Prism. Data was expressed as fold change in signal vs. dose of STING agonist in nM with error bars indicating the Standard Deviation (SD) of the quadruplicates. There result was reported in Table 2 as EC50 (the midpoint of the curve, or concentration at which […] of the maximum effect was observed).

T2 sequence (Q86WV6 whole entry R71H/G230A/H232R/R293Q): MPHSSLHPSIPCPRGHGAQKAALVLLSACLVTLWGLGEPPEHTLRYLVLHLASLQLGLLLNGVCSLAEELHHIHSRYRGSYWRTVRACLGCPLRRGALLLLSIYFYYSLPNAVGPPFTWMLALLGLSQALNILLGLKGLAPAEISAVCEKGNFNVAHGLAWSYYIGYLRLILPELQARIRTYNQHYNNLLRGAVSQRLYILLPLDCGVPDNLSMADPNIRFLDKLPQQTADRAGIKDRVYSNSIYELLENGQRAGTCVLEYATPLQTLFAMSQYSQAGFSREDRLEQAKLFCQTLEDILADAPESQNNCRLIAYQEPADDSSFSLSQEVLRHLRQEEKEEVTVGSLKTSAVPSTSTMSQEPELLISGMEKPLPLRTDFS
Sequence of hSTING AQ (Q86WV6 whole entry G230A/H232R/R293Q): as the sequence (Q86WV6 whole entry R71H/G230A/H232R/R293Q) above, with H71R counted along it
T1 sequence (Q86WV6 whole entry H232R): as the sequence (Q86WV6 whole entry R71H/G230A/H232R/R293Q) above, with H71R, A230G, Q293R counted along it
Sequence of hSTING WT (Q86WV6 whole entry H232R): as the sequence (Q86WV6 whole entry R71H/G230A/H232R/R293Q) above, with H71R, A230G, Q293R counted along it

EC50 (hSTING-R232): 50 to 150 nM | EC50 (hSTING-HAQ haplotype): 50 to 150 nM | Kd (hSTING WT): ≤ 20 nM | Kd (hSTING AQ): ≤ 20 nM | EC50 ([1]; read-out: IL-6 Release EC50): > 100 nM | EC50 ([1]; read-out: IP-10 Release EC50): > 100 nM | EC50 (mSTING): > 150 nM
SMILES: CCn1nc(C)cc1C(=O)Nc1nc2cc(C(N)=O)cc(OC)c2n1C/C=C/Cn1c(NC(=O)c2cc(C)nn2CC)nc2cc(C(N)=O)cc(OCCCN3CCC(c4nnc5n4CCNC5)CC3)c21 [Compound 4, 1-[(E)-4-[5-carbamoyl-2-[(2-ethyl-5-methyl-pyrazole-3-carbonyl)amino]-7-[3-[4-(5,6,7,8-tetrahydro-[1,2,4]triazolo[4,3-a]pyrazin-3-yl)-1-piperidyl]propoxy]benzimidazol-1-yl]but-2-enyl]-2-[(2-ethyl-5-methyl-pyrazole-3-carbonyl)amino]-7-methoxy-benzimidazole-5-carboxamide; 2,2,2-trifluoroacetic acid]
IL-6 Release Span [1]: >8000 pg/mL | IP-10 Release Span [1]: >4000 pg/mL
